Results reported in patent US20120165304A1, “6,7,8,9-Tetrahydro-5H-1,4,7,10a-tetraaza-cyclohept[f]indene derivatives, pharmaceutical compositions containing these compounds, their use and processes for preparing them” (BOEHRINGER INGELHEIM INTERNATIONAL GMBH, priority 2008, published 2012).
pEC50: −log10 of the molar value.

Target: human 5-HT2C receptor (Homo sapiens, UniProt P28335, I156V/I160V/N158S)
Test: cell-based

Sequence of human 5-HT2C receptor (P28335 33-458 I156V/N158S/I160V limits assumed): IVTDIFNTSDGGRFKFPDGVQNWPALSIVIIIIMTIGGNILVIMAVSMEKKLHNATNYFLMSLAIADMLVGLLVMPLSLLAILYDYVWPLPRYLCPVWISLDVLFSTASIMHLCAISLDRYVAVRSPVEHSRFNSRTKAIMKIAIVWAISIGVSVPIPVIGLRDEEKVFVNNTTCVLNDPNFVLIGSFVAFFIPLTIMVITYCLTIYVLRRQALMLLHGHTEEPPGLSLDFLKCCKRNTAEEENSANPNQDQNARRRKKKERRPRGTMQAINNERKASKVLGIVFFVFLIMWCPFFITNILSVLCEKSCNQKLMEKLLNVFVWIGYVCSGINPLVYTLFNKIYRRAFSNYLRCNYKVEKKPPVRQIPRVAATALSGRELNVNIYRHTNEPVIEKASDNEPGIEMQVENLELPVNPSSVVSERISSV

SMILES | pEC50
Brc1cnn2c(N3CCC(c4ccccc4)C3)c3c(nc12)CCNCC3 (stereo not drawn) [Example 2.2] | 7.25
CC(=O)N(C)C1CCN(C(=O)C2CN(c3c4c(nc5ccnn35)CCN(C)CC4)C2)CC1 [Example 36.31] | 6.73
CC1CCCN(C(=O)C2CN(c3c4c(nc5ccnn35)CCNCC4)C2)C1 (stereo not drawn) [Example 31.1] | 7.05
CN1CCc2nc3ccnn3c(N3CC(C(=O)N4CCN(C5CCCCC5)CC4)C3)c2CC1 [Example 36.54] | 7.01
Fc1cccc(OCC2CN(c3c4c(nc5ccnn35)CCNCC4)C2)c1 [Example 15.19] | 7.68
CC(C)(C)N1CCC2(CCN(C(=O)C3CN(c4c5c(nc6ccnn46)CCNCC5)C3)CC2)C1=O [Example 31.150] | 6.62
O=C(C1CN(c2c3c(nc4ccnn24)CCNCC3)C1)N1CCC(c2ccc(Br)cc2)CC1 [Example 31.112] | 6.88
O=C(NCCF)C1CN(c2c3c(nc4ccnn24)CCNCC3)C1 [Example 37.107] | 7.04
CC1CCN(C(=O)C2CN(c3c4c(nc5ccnn35)CCNCC4)C2)C1 (stereo not drawn) [Example 31.124] | 7.03
c1ccc2[nH]c(C3CN(c4c5c(nc6ccnn46)CCNCC5)C3)nc2c1 [Example 34] | 6.21
O=C(C1CN(c2c3c(nc4ccnn24)CCNCC3)C1)N1CCc2cc(F)ccc21 [Example 31.217] | 7.25
N#CC1CCN(C(=O)C2CN(c3c4c(nc5ccnn35)CCNCC4)C2)C1 (stereo not drawn) [Example 31.159] | 7.49
COc1ccc(OC2CN(c3c4c(nc5ccnn35)CCNCC4)C2)c(Br)c1 [Example 35.30] | 7.40
CN(CCc1cccc(Cl)c1)C(=O)C1CN(c2c3c(nc4ccnn24)CCNCC3)C1 [Example 31.59] | 6.83
c1cc2nc3c(c(N4CCCCCC4)n2n1)CCNCC3 [Example 7.5] | 6.23
COc1cc(F)ccc1OCC1CN(c2c3c(nc4ccnn24)CCNCC3)C1 [Example 15.8] | 8.22
CCCn1c(C2CN(c3c4c(nc5ccnn35)CCNCC4)C2)nc2ccccc21 [Example 34.35] | 6.33
O=C(NC1CCc2ccccc21)C1CN(c2c3c(nc4ccnn24)CCNCC3)C1 (stereo not drawn) [Example 31.32] | 7.31
C#CCCN(CC(C)C)C(=O)C1CN(c2c3c(nc4ccnn24)CCNCC3)C1 [Example 31.106] | 6.74
O=C(C1CN(c2c3c(nc4ccnn24)CCNCC3)C1)N1CCOC(c2ccccc2)C1 (stereo not drawn) [Example 31.8] | 7.03
C[C@@H](c1ccccc1)N(C)C(=O)C1CN(c2c3c(nc4ccnn24)CCNCC3)C1 [Example 31.91] | 5.70
Cc1ccccc1N1CCN(C(=O)C2CN(c3c4c(nc5ccnn35)CCNCC4)C2)CC1 [Example 37.37] | 8.05
CN1CCc2nc3ccnn3c(N3CC(C(=O)NC4CCC(C)(C)CC4)C3)c2CC1 [Example 36.39] | 6.04
CN(Cc1cccc(Br)c1)C(=O)C1CN(c2c3c(nc4ccnn24)CCNCC3)C1 [Example 31.79] | 7.70
O=C(NCC1CCCCCC1)C1CN(c2c3c(nc4ccnn24)CCNCC3)C1 [Example 37.68] | 7.41
CC(C)C1(O)CCN(C(=O)C2CN(c3c4c(nc5ccnn35)CCN(C)CC4)C2)CC1 [Example 36.26] | 6.72

SMILES | pEC50
O=C(NCc1ccc(OC(F)F)cc1)C1CN(c2c3c(nc4ccnn24)CCNCC3)C1 [Example 37.97] | 8.10
O=C(C1CN(c2c3c(nc4ccnn24)CCNCC3)C1)N1CC[C@H](c2ccccc2)C1 [Example 31.224] | 7.35
O=C(C1CN(c2c3c(nc4ccnn24)CCNCC3)C1)N1CCC2(CCOC2)CC1 [Example 31.57] | 7.43
CCCCN1CCCN(C(=O)C2CN(c3c4c(nc5ccnn35)CCN(C)CC4)C2)CC1 [Example 36.36] | 6.59
Cc1nc(CN(C)C(=O)C2CN(c3c4c(nc5ccnn35)CCNCC4)C2)c(C)o1 [Example 31.58] | 7.28
CN1CCc2nc3ccnn3c(N3CC(C(=O)NCCC4CCCC4)C3)c2CC1 [Example 36.46] | 6.84
CN1CCc2nc3ccnn3c(N3CC(C(=O)N4CCN(C(=O)C5CCCCC5)CC4)C3)c2CC1 [Example 36.22] | 6.74
O=C1CCCN1c1ccc(OC2CN(c3c4c(nc5ccnn35)CCNCC4)C2)c(Cl)c1 [Example 35.26] | 6.94
O=C(C1CN(c2c3c(nc4ccnn24)CCNCC3)C1)N1CCC(c2cccc(F)c2)C1 (stereo not drawn) [Example 31.118] | 7.96
COc1ccc(OC2CN(c3c4c(nc5ccnn35)CCNCC4)C2)cc1OC [Example 35.49] | 6.86
CN1CCC2(CCN(C(=O)C3CN(c4c5c(nc6ccnn46)CCNCC5)C3)CC2)C1=O [Example 31.151] | 6.50
CC1CN(C(=O)C2CN(c3c4c(nc5ccnn35)CCN(C)CC4)C2)CCO1 (stereo not drawn) [Example 36.11] | 6.86
CC1CN(C(=O)C2CN(c3c4c(nc5ccnn35)CCN(C)CC4)C2)CC(C)N1C (stereo not drawn) [Example 36.7] | 6.97
c1ccc2oc(C3CN(c4c5c(nc6ccnn46)CCNCC5)C3)nc2c1 [Example 14, 10-(3-Benzooxazol-2-yl-azetidin-1-yl)-6,7,8,9-tetrahydro-5H-1,4,7,10a-tetraaza-cyclohepta[f]indene] | 6.17
CN1CCCN(C(=O)C2CN(c3c4c(nc5ccnn35)CCNCC4)C2)CC1 [Example 37.10] | 8.70
COc1ccc(C(O)C2CN(c3c4c(nc5ccnn35)CCNCC4)C2)cc1 (stereo not drawn) [Example 19, (4-Methoxy-phenyl)-[1-(6,7,8,9-tetrahydro-5H-1,4,7,10a-tetraaza-cyclohepta[f]inden-10-yl)-azetidin-3-yl]-methanol] | 6.86
CN1CCc2nc3ccnn3c(N3CC(C(=O)N4CCC5(CC5)C4)C3)c2CC1 [Example 36.37] | 7.21
O=C(C1CN(c2c3c(nc4ccnn24)CCNCC3)C1)N1CCc2ccccc2C1 [Example 31.60] | 7.24
O=C(NCC1CCCCO1)C1CN(c2c3c(nc4ccnn24)CCNCC3)C1 (stereo not drawn) [Example 37.55] | 7.18
CN1CCc2nc3ccnn3c(N3CC(C(=O)NC4CCOCC4)C3)c2CC1 [Example 36.35] | 6.94
O=C(C1CN(c2c3c(nc4ccnn24)CCNCC3)C1)N1CCCC(F)(F)C1 [Example 31.201] | 7.62
CC1CNCCc2c1nc1ccnn1c2N1CCCCC1 (stereo not drawn) [Example 3, 5-Methyl-10-piperidin-1-yl-6,7,8,9-tetrahydro-5H-1,4,7,10a-tetraaza-cyclohepta[f]indene] | 5.74
c1ccc2c(c1)nc(C1CN(c3c4c(nc5ccnn35)CCNCC4)C1)n2C1CCCC1 [Example 34.29] | 7.02
FC(F)(F)c1cccc(OC2CN(c3c4c(nc5ccnn35)CCNCC4)C2)c1 [Example 1.7] | 7.38
CN(C(=O)C1CN(c2c3c(nc4ccnn24)CCNCC3)C1)C1CCCC1 [Example 31.12] | 6.09
CCCCNC(=O)C1CN(c2c3c(nc4ccnn24)CCNCC3)C1 [Example 37.72] | 7.04

SMILES | pEC50
CC(C)CN(Cc1ccc(F)cc1)C(=O)C1CN(c2c3c(nc4ccnn24)CCNCC3)C1 [Example 31.198] | 5.74
CN(Cc1ccc(Cl)c(Cl)c1)C(=O)C1CCCN(c2c3c(nc4ccnn24)CCNCC3)C1 (stereo not drawn) [Example 1.57] | 5.53
Fc1cccc(OC2CN(c3c4c(nc5ccnn35)CCNCC4)C2)c1 [Example 1.9] | 7.59
c1cncc(Cn2c(C3CN(c4c5c(nc6ccnn46)CCNCC5)C3)nc3ccccc32)c1 [Example 34.27] | 7.34
O=C(C1CN(c2c3c(nc4ccnn24)CCNCC3)C1)N1CC[C@H](F)C1 [Example 31.202] | 6.79
Fc1c(Cl)cccc1OCC1CN(c2c3c(nc4ccnn24)CCNCC3)C1 [Example 15.25] | 6.67
CN(Cc1ccc(-c2ccccc2)cc1)C(=O)C1CN(c2c3c(nc4ccnn24)CCNCC3)C1 [Example 31.82] | 6.81
CC(=O)N1CCCN(C(=O)C2CN(c3c4c(nc5ccnn35)CCNCC4)C2)CC1 [Example 37.102] | 7.17
CCN1CCCC1CNC(=O)C1CN(c2c3c(nc4ccnn24)CCN(C)CC3)C1 (stereo not drawn) [Example 36.4] | 6.60
Fc1ccccc1OCC1CN(c2c3c(nc4ccnn24)CCNCC3)C1 [Example 15.2] | 8.52
Cc1cnn2c(N3CC(C(=O)N4CCCC(F)(F)C4)C3)c3c(nc12)CCNCC3 [Example 31.238] | 7.89
C#CCNC(=O)C1CN(c2c3c(nc4ccnn24)CCNCC3)C1 [Example 37.85] | 7.03
CN(Cc1cccc(F)c1)C(=O)C1CN(c2c3c(nc4ccnn24)CCNCC3)C1 [Example 31.125] | 7.42
c1ccc(C2OCCN(c3c4c(nc5ccnn35)CCNCC4)C2c2ccccc2)cc1 (stereo not drawn) [Example 1.40] | 5.89
CN1CCc2nc3ccnn3c(N3CC(C(=O)N4CCN(C(=O)C5CC5)CC4)C3)c2CC1 [Example 36.43] | 6.58
CCCCN1CCN(C(=O)C2CN(c3c4c(nc5ccnn35)CCNCC4)C2)CC1 [Example 37.25] | 8.52
O=C(C1CN(c2c3c(nc4ccnn24)CCNCC3)C1)N1CCC(c2ccccc2)CC1 [Example 31.63] | 7.51
CN(Cc1ccc(C(F)(F)F)cc1)C(=O)C1CN(c2c3c(nc4ccnn24)CCNCC3)C1 [Example 31.87] | 7.44
O=C(C1CN(c2c3c(nc4ccnn24)CCNCC3)C1)N1CCN(c2ccccc2F)CC1 [Example 37.40] | 7.92
O=C(C1CN(c2c3c(nc4ccnn24)CCNCC3)C1)N1CC2CC2(c2cccs2)C1 (stereo not drawn) [Example 31.231] | 7.57
Clc1ccc(OC2CN(c3c4c(nc5ccnn35)CCNCC4)C2)cc1 [Example 35, 10-[3-(4-Chloro-phenoxy)-azetidin-1-yl]-6,7,8,9-tetrahydro-5H-1,4,7,10a-tetraaza-cyclohepta[f]indene] | 6.85
O=C(NCC(F)(F)F)C1CN(c2c3c(nc4ccnn24)CCNCC3)C1 [Example 37.94] | 6.64
Cc1cccc2c1CCN2C(=O)C1CN(c2c3c(nc4ccnn24)CCNCC3)C1 [Example 31.175] | 7.19
Cn1c(C2CN(c3c4c(nc5ccnn35)CCNCC4)C2)nc2cc(F)ccc21 [Example 34.38] | 6.54
COc1ccc(Cl)c(OCC2CN(c3c4c(nc5ccnn35)CCNCC4)C2)c1 [Example 15.27] | 8.15
Cc1cnn2c(N3CC(C(=O)N(C)Cc4ccc(OC(F)F)cc4)C3)c3c(nc12)CCNCC3 [Example 31.249] | 7.80
